This note sets out measurements from article PMC5368959, “Uricosuric targets of tranilast” (Pharmacology Research & Perspectives, 2017).

Values joined by “and” are separate entries in the source; they are usually repeats but may differ in a detail not shown here. Equal values may be shown once. Read-outs that look alike come from different tables or passages of the source.

Common to all, as to assay type: cell-based
One assay deals with T1, SMCT2 (Homo sapiens, UniProt Q1EHB4).
T1 sequence (Q1EHB4 1-618): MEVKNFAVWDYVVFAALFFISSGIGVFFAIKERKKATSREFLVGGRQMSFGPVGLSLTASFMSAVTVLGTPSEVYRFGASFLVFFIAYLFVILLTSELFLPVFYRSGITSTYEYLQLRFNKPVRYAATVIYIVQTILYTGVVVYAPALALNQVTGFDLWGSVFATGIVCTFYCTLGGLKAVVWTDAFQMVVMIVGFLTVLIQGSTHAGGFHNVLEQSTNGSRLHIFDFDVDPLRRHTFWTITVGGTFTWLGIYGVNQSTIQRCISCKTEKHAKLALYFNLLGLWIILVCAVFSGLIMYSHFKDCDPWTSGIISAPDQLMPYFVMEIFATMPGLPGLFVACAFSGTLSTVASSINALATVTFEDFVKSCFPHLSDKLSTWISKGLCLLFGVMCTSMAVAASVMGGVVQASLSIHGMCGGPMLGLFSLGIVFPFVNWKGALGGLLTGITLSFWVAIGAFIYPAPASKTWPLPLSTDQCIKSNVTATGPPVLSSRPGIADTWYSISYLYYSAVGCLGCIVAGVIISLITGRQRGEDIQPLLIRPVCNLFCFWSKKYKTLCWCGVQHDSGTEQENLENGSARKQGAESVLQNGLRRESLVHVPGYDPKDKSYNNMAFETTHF
As to the kind of experiment: [14C]-nicotinate uptake by SMCT2-expressing Xenopus oocytes. Particulars: for IC50: data not shown, read-out: IC50, SMCT2-mediated [14C]-nicotinate uptake. The procedure: (§1) For uptake experiments, oocytes were washed four times with ND96 medium (pH 7.4) without pyruvate and gentamycin.
(§2) Chloride ion‐dependence was also assessed; in 0 Cl^− bath, NaCl was replaced by Na‐gluconate (Na‐Gluc), KCl by K‐gluconate (K‐Gluc), MgCl2 by Mg‐gluconate, and CaCl2 by Ca‐gluconate. […] Data are mean ± S.E. with n = 12–15.

A further assay deals with T2, GLUT9a (Homo sapiens, UniProt Q9NRM0).
T2 sequence (Q9NRM0 1-540): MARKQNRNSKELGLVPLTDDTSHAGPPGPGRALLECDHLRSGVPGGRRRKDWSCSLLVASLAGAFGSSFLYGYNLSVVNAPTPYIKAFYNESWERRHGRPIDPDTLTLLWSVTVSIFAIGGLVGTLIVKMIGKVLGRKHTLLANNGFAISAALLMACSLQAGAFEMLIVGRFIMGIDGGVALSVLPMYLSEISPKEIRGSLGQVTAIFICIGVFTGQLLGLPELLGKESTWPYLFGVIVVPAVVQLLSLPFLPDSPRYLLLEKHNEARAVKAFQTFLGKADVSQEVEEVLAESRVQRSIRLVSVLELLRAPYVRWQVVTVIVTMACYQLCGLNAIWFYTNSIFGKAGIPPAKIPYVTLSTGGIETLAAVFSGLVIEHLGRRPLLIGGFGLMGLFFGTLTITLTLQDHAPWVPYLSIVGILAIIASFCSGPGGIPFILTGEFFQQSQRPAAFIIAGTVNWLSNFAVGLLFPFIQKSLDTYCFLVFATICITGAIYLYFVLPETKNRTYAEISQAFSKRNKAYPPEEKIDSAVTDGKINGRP
As to the kind of experiment: [14C]-urate uptake by GLUT9a-expressing Xenopus oocytes. Conditions: for IC50: 40 μmol/L urate, NaCl medium, read-out: IC50, GLUT9a-mediated [14C]-urate uptake.
Excerpt: as §1
We sought to investigate the effect of tranilast on GLUT9a‐mediated [^14C]‐urate uptake in Xenopus laevis oocytes.

A further assay addresses T3, SMCT1 (Homo sapiens, UniProt Q8N695).
T3 sequence (Q8N695 1-610): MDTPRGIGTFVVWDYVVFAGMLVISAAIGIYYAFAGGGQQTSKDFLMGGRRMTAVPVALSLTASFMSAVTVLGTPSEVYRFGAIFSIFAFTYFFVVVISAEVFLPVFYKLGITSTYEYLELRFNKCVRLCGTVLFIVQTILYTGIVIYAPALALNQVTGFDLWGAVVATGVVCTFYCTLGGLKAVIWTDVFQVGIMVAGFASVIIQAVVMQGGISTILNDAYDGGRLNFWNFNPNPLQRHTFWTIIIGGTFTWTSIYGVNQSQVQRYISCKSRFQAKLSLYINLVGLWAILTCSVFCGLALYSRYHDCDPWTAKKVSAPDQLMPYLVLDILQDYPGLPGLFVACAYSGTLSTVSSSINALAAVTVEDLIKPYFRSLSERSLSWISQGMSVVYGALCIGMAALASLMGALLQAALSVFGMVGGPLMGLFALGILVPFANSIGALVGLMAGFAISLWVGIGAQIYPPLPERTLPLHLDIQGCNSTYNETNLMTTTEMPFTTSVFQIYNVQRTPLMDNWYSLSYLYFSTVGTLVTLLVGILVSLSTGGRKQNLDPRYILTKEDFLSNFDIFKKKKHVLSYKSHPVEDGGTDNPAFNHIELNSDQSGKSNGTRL
As to the kind of experiment: [14C]-nicotinate uptake by SMCT1-expressing Xenopus oocytes. Conditions: for IC50: data not shown, read-out: IC50, SMCT1-mediated [14C]-nicotinate uptake. The procedure: as §1, §2

A further assay has as its target T4, OAT3 (Mus musculus, UniProt O88909).
T4 sequence (O88909 1-537): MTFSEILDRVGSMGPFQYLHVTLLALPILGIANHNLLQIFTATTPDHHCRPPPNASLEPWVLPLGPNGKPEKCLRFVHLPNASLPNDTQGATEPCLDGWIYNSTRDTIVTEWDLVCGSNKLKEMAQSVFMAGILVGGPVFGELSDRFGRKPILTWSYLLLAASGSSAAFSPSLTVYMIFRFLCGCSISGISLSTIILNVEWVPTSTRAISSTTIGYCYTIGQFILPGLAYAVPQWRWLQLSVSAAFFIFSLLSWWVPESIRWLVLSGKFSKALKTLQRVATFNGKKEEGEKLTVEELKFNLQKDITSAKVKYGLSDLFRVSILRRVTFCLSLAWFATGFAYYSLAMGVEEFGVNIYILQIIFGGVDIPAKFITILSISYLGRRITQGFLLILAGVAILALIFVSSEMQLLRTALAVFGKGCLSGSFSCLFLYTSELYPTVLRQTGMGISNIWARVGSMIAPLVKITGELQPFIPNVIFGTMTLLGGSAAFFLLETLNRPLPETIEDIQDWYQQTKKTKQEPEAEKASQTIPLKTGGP
As to the kind of experiment: [14C]-urate uptake by OAT3-expressing Xenopus oocytes. The procedure: as §1
The uptake of [^14C]‐urate (40 μmol/L) was performed in ND96 medium (pH 7.4) at ~25°C for 1 h.

As to `CCCN(CCC)S(=O)(=O)c1ccc(C(=O)O)cc1` [probenecid], at SMCT2 (drug 1.0 mmol/L), the “Inhibition of SMCT2 nicotinate uptake” value was “remained almost unaffected”. Further, the inhibition at 1000 µM at GLUT9a (drug 1.0 mmol/L) was about 60%. The “Reversibility of GLUT9a inhibition” value at GLUT9a (washout in oocytes) is “not reversible”. Besides, the “Inhibition of SMCT1 nicotinate uptake” value at SMCT1 (drug 1.0 mmol/L) is “significantly inhibited”. Further, on OAT3 (drug 1.0 mmol/L), the “Inhibition of OAT3-mediated urate uptake” value is reported as “effectively inhibited”.

On to `COc1ccc(C=CC(=O)Nc2ccccc2C(=O)O)cc1OC` [tranilast, N‐(3,4‐dimethoxycinnamoyl) anthranilic acid], for which the IC50 on SMCT2 was ~1000 µM and > 185 µM. Besides, at GLUT9a, the “GLUT9a urate transport inhibition after washing and removal of inhibitor” value is on record as “almost no inhibition”; the “Inhibition of GLUT9a urate uptake” value is on record as “efficiently inhibited”; the “Vmax of GLUT9a-mediated urate uptake” value is 108.4 pmoles/oocyte/h and 61 pmoles/oocyte/h; the “mode of inhibition of GLUT9a-mediated urate transport” value is given as “noncompetitive (mixed) inhibition”. The IC50 at GLUT9a was about 15.6 µM. Further, the Ki on GLUT9a (Eadie-Hofstee analysis, read-out: inhibition constant (Ki) for GLUT9a-mediated urate uptake) is 17.1 ± 1.3 µM. Further, the “IC50 for GLUT9a under membrane depolarization” value against GLUT9a (depolarized vs polarized, data not shown) is “remained unchanged”. Also, the IC50 at SMCT1 was ~1100 µM and > 185 µM. Also, the IC50 at OAT3 (data not shown, read-out: IC50, OAT3-mediated urate uptake) was about 15 µM. For the same molecule, the “Inhibition of OAT3-mediated urate uptake” value on OAT3 (drug 50 μmol/L) is on record as “effectively inhibited”.

Take `CCc1oc2ccccc2c1C(=O)c1cc(Br)c(O)c(Br)c1` [benzbromarone]: on SMCT2, the concentration for half-maximal inhibition (IC50) was about 61.3 µM. Also, on GLUT9a, the “GLUT9a urate transport inhibition after washing and removal of inhibitor” value was “substantially inhibited”; the “Inhibition of GLUT9a urate uptake” value is “efficiently inhibited”; the “Reversibility of GLUT9a inhibition” value was “not reversible”; the IC50 was about 14.2 µM. Besides, the IC50 on SMCT1 is about 49.6 µM. At OAT3 (drug 100 μmol/L), the “Inhibition of OAT3-mediated urate uptake” value is reported as “effectively inhibited”.

For orientation: inhibition means the change of the read-out against control, counted positive when it falls. A lower inhibition goes with a weak effect. Usually IC50 stands for the concentration needed to halve the response being measured. The term Ki denotes a dissociation constant, usually derived from enzyme kinetics or from competition with a known ligand.
